Data published in patent publication US6620585B1, “Use of ectoenzymes and secreted enzymes to monitor cellular proliferation” (priority 2000, dated 2003).
Values after ≈ are worked out from the molar mass of the structure shown. Positions of bridges follow the written chain, without caps; N, C: chain ends. Non-standard residues stand in square brackets, D forms with d. Residues, ends and D or L forms follow the SMILES beside them. *: point of attachment. Ileψ(thiazoline)Cys = CC[C@H](C)[C@H](N)C1=N[C@H](C(=O)*)CS1; dOrn = NCCC[C@@H](N)C(=O)O

tested on: bacterial strain engineered for expression of an antisense complementary to a proliferation-required 50S ribosomal protein (rplL and rplJ); assay: not given; format: cell-based, E. coli; settings: antisense to rplL and rplJ induced, 400 μM IPTG; growth by light scattering at 595 nm, mid-exponential time point
Experimental: The effectiveness of the above assays was validated using proliferation-required genes from E. coli which were identified using procedures similar to those described above. Antibiotics of various chemical classes and modes of action were purchased from Sigma Chemicals (St. Louis, Mo.). Stock solutions were prepared by dissolving each antibiotic in an appropriate aqueous solution based on information provided by the manufacturer. The final working solution of each antibiotic contained no more than 0.2% (w/v) of any organic solvent. To determine their potency against a bacterial strain engineered for expression of an antisense complementary to a proliferation-required 50S ribosomal protein, each antibiotic was serially diluted two or three fold in growth medium supplemented with the appropriate antibiotic for maintenance of the anti-sense construct. At least ten dilutions were prepared for each antibiotic. 25 μL aliquots of each dilution were transferred to discrete wells of a 384-well microplate (the assay plate) using a multi-channel pipette. Quadruplicate wells were used for each dilution of an antibiotic under each treatment condition (plus and minus inducer). Each assay plate contained twenty wells for cell growth controls (growth media replacing antibiotic), ten wells for each treatment (plus and minus inducer, in this example IPTG). Assay plates were usually divided into the two treatments: half the plate containing induced cells and an appropriate concentrations of inducer (in this example IPTG) to maintain the state of induction, the other half containing non-induced cells in the absence of IPTG.
Cells for the assay were prepared as follows. Bacterial cells containing a construct, from which expression of antisense nucleic acid complementary to rplL and rplJ, which encode proliferation-required 50S ribosomal subunit proteins, is inducible in the presence of IPTG, were grown into exponential growth (OD600 0.2 to 0.3) and then diluted 1:100 into fresh media containing either 400 μM or 0 μM inducer (IPTG). These cultures were incubated at 37° C. for 2.5 hr. After a 2.5 hr incubation, induced and non-induced cells were respectively diluted into an assay medium at a final OD600 value of 0.0004. The medium contained an appropriate concentration of the antibiotic for the maintenance of the antisense construct. In addition, the medium used to dilute induced cells was supplemented with 800 μM IPTG so that addition to the assay plate would result in a final IPTG concentration of 400 μM. Induced and non-induced cell suspensions were dispensed (25 μl/well) into the appropriate wells of the assay plate as discussed previously. The plate was then loaded into a plate reader, incubated at constant temperature, and cell growth was monitored in each well by the measurement of light scattering at 595 nm. Growth was monitored every 5 minutes until the cell culture attained a stationary growth phase. For each concentration of antibiotic, a percentage inhibition of growth was calculated at the time point corresponding to mid-exponential growth for the associated control wells (no antibiotic, plus or minus IPTG). For each antibiotic and condition (plus or minus IPTG), a plot of percent inhibition versus log of antibiotic concentration was generated and the IC50 determined.

Compound	IC50 (+IPTG)
CN[C@@H]1[C@H](O)[C@H](NC)[C@H]2O[C@@]3(O)C(=O)C[C@@H](C)O[C@H]3O[C@@H]2[C@H]1O [Spectinomycin]	<0.156 µg/mL
CN(C)c1ccc(O)c2c1C[C@H]1C[C@H]3[C@H](N(C)C)C(O)=C(C(N)=O)C(=O)[C@@]3(O)C(O)=C1C2=O [Minocycline]	0.003897 µg/mL (≈ 0.00852 µM)

same assay, conditions: significant decrease in IC50 in the presence of inducer (IPTG)

Compound	Sensitivity Increased ?
[H]/N=C(/N)N[C@H]1[C@H](O)[C@@H](O)[C@H](O[C@@H]2O[C@@H](C)[C@](O)(C=O)[C@H]2O[C@@H]2O[C@@H](CO)[C@H](O)[C@@H](O)[C@@H]2NC)[C@@H](N/C(N)=N\[H])[C@@H]1O [Streptomycin]	Yes
CCn1cc(C(=O)O)c(=O)c2ccc(C)nc21 [Nalidixic acid]	No
CCC[C@@H]1C[C@@H](C(=O)N[C@@H]([C@H]2O[C@H](SC)[C@H](O)[C@@H](O)[C@H]2O)[C@@H](C)O)N(C)C1 [Lincomycin]	Yes
CC[C@H]1OC(=O)[C@H](C)[C@@H](O[C@H]2C[C@@](C)(OC)[C@@H](O)[C@H](C)O2)[C@H](C)[C@@H](O[C@@H]2O[C@H](C)C[C@H](N(C)C)[C@H]2O)[C@](C)(O)C[C@@H](C)C(=O)[C@H](C)[C@@H](O)[C@]1(C)O [Erythromycin]	Yes
CO/N=C(\C(=O)N[C@@H]1C(=O)N2C(C(=O)O)=C(COC(C)=O)CS[C@H]12)c1csc(N)n1 [Cefotaxime]	No
NC[C@H]1O[C@H](O[C@H]2[C@H](O)[C@@H](O[C@H]3O[C@H](CO)[C@@H](O)[C@H](N)[C@H]3O)[C@H](N)C[C@@H]2N)[C@H](N)C[C@@H]1O [Tobramycin]	Yes
CC(=O)O[C@H]1C[C@@]2(C)[C@@H](C[C@@H](O)[C@H]3[C@@]4(C)CC[C@@H](O)[C@@H](C)[C@@H]4CC[C@@]32C)/C1=C(\CCC=C(C)C)C(=O)O [Fusidic acid]	Yes
O=C(N[C@H](CO)[C@H](O)c1ccc([N+](=O)[O-])cc1)C(Cl)Cl [Chloramphenicol]	Yes
CN[C@@H]1[C@H](O)[C@H](NC)[C@H]2O[C@@]3(O)C(=O)C[C@@H](C)O[C@H]3O[C@@H]2[C@H]1O [Spectinomycin]	Yes
Gentamicin	Yes
CC[C@H](C)[C@H](N)C1=N[C@H](C(=O)N[C@@H](CC(C)C)C(=O)N[C@H](CCC(=O)O)C(=O)N[C@H](C(=O)N[C@H]2CCCCNC(=O)[C@H](CC(N)=O)NC(=O)[C@@H](CC(=O)O)NC(=O)[C@H](Cc3cnc[nH]3)NC(=O)[C@@H](Cc3ccccc3)NC(=O)[C@H]([C@@H](C)CC)NC(=O)[C@@H](CCCN)NC2=O)[C@@H](C)CC)CS1 [Bacitracin] ({Ileψ(thiazoline)Cys}-L[dE]IK[dOrn]I[dF]H[dD]N; lactam 4-C)	No
CN[C@H](CC(C)C)C(=O)N[C@H]1C(=O)N[C@@H](CC(N)=O)C(=O)N[C@H]2C(=O)N[C@H]3C(=O)N[C@H](C(=O)N[C@H](C(=O)O)c4cc(O)cc(O)c4-c4cc3ccc4O)[C@H](O)c3ccc(c(Cl)c3)Oc3cc2cc(c3O[C@@H]2O[C@H](CO)[C@@H](O)[C@H](O)[C@H]2O[C@H]2C[C@](C)(N)[C@H](O)[C@H](C)O2)Oc2ccc(cc2Cl)[C@H]1O [Vancomycin]	No
CO[C@@]1(NC(=O)Cc2cccs2)C(=O)N2C(C(=O)O)=C(COC(N)=O)CS[C@@H]21 [Cefoxitin]	No

tested on: E. coli strain DJKGC4; assay: Chitobiase-based cell growth assay, gentamicin dose response in 1536-well plate; settings: 5 hours, 100 μM MNAG
Experimental: FIG. 6 is an E. coli dose response curve to gentamicin. E. coli strain DJKGC4 was inubated with various concentrations of gentamicin for 5 hours in a 1536 well plate in the presence of 100 μM 4-methylumbelliferyl N-acetyl β-D-glucosaminide (MNAG). After removal of background fluorescence, the inhibition of cell growth produced by each gentamicin concentration was calculated by comparison to the fluorescence generated by control cells growing in the absence of gentamicin.
To follow cell growth using the fluorogenic substrate MNAG, E. coli cells of strain DJKGC4 containing a chromosomally integrated, constitutively expressed chitobiase gene were added to an appropriate growth medium containing 100 μM MNAG, and the resulting cell suspension was dispensed into the wells of 1536-well microplates as described above. Following addition of test compounds and controls, plates were incubated at 37° C. and cell growth was followed by measurement of the fluorescent product of chitobiase activity, 4-methylumbelliferone using an Acquest reader (LJL Biosystems, excitation wavelength 360 nm, emission wavelength 425 nm).
An E. coli dose response to gentamicin was obtained by incubating E. coli strain DJKGC4 with various concentrations of gentamicin for 5 hours in a 1536-well plate in the presence of 100 μM MNAG. […]

Compound	IC50 by the chitobiase-based assay compared with 384 well plate format, turbidity-based assays
Gentamicin	indistinguishable
